The values below are quoted from earlier work in PMC3066546, “Development of modified nucleosides that have supremely high anti-HIV activity and low toxicity and prevent the emergence of resistant HIV mutants” (Proceedings of the Japan Academy. Series B, Physical and …, 2011).

One series relates to HIV-1MDR. Set-up: method as in PMID 18487070. To be noted: Table 7; read-out: Anti-HIV activity (MAGI assay, µg) HIV-1MDR.
A further series has as its system HIV-1 MDR. Set-up: method as in PMID 563233, PMID 17548498, PMID 18487070. To be noted: Table 6.
Another series has as its system adenosine deaminase. Set-up: method as in PMID 563233, PMID 17548498, PMID 18487070. The note with it: conditions where 4′EdA was completely deaminated in 60 min.
The test system of another series is HIV-1 M184V. Set-up: method as in PMID 563233, PMID 17548498, PMID 18487070. The note with it: Table 6.
For a further series, the system named is HIV. The note with it: 24 h after removal of extracellular drug, MT4 cells and MAGI cells cultured with 0.1 µM.
On the set-up of series [1]: method as in PMID 563233, PMID 17548498, PMID 18487070. The note with it: 120 min, acidic conditions of gastric juices (pH 1.06), 24 ℃.
The next series relates to HIV-1 Wild-type. Set-up: method as in PMID 563233, PMID 17548498, PMID 18487070. To be noted: Table 6.
In the next series the test system is HIV-1wild. Set-up: method as in PMID 18487070. The note with it: Table 7; read-out: Anti-HIV activity (MAGI assay, µg) HIV-1wild.
The conditions of series [2]: Table 6.

Read-outs that look alike come from different tables or passages of the source.

In the case of `C#C[C@]1(CO)O[C@@H](n2cnc3c(N)nc(F)nc32)C[C@@H]1O` [4′Ed2FA, 2′-deoxy-4′-C-ethynyl-2-fluoroadenosine], the EC50 is 0.14 nM in the series on HIV-1MDR; 0.15 nM with HIV-1 MDR; 3.1 nM in the series with HIV-1 M184V; 0.068 nM in the series on HIV-1 Wild-type; 0.2 nM in the series with HIV-1wild. In addition, the Survivors/total with ICR mice (i.v., single dosage 1 mg Kg−1, ICR mice) is 8/8; in the series with ICR mice (i.v., single dosage 3 mg Kg−1, ICR mice), 8/8; in the series on ICR mice (i.v., single dosage 10 mg Kg−1, ICR mice), 8/8; in the series on ICR mice (i.v., single dosage 30 mg Kg−1, ICR mice) it was 8/8; with ICR mice (i.v., single dosage 100 mg Kg−1, ICR mice) it was 8/8; with ICR mice (p.o, single dosage 1 mg Kg−1, ICR mice) it was 8/8. In addition, the Survivors/total is given as 8/8 with ICR mice (p.o, single dosage 3 mg Kg−1, ICR mice); 8/8 in the series on ICR mice (p.o, single dosage 10 mg Kg−1, ICR mice); 8/8 in the series on ICR mice (p.o, single dosage 30 mg Kg−1, ICR mice); 8/8 with ICR mice (p.o, single dosage 100 mg Kg−1, ICR mice). The “acute toxicity to mice” value in the series on ICR mice (oral or intravenous administration up to 100 mg kg−1) is on record as “did not show any acute toxicity”. Besides, in the series on adenosine deaminase, the “stability to adenosine deaminase” value was “completely stable”. Besides, the “cells protected against the infection of HIV” value in the series with HIV is on record as “About 50%”. Further, in [1], the part decomposed is 3%. Further, the CC50 in series [2] was 7500 nM.
